From publication PMC8964499, “An Efficient Approach for the Design and Synthesis of Antimicrobial Peptide-Peptide Nucleic Acid Conjugates” (Frontiers in Chemistry, 2022)
“And” between values parts separate entries of the source, which are not always exact repeats. Equal entries are not always repeated. Non-standard residues stand in square brackets, D forms with d. Residues, ends and D or L forms follow the SMILES beside them. *: point of attachment. X1 = N#Cc1cc(C(=O)*)ccn1; AEEA = NCCOCCOCC(=O)O; Ahx = NCCCCCC(=O)O

Experiments:
[1] = system: P. aeruginosa ATCC 27853; conditions: disc diffusion (EUCAST), 40 μM per disk, inoculum McFarland 0.5 (~10^8 CFU/ml), 18 h at 37°C; volume per disk corrected by Mw equivalent to 40 ug of LASP-072
Procedure: (§1) According to the EUCAST guidelines ([Eucast, E.C.O.a.S.T., 2021]), the inoculum was standardized in sterile saline to the density of a McFarland 0.50 ± 0.02 standard, corresponding to ∼10^8 CFU/ml of each isolate. The freshly prepared bacterial suspension was evenly inoculated onto agar plates and disks containing 40 μM of peptide-PNA conjugates were applied within 15 min. The diameter of inhibition zones was measured after incubation for 18 h at 37°C. Polymyxin B (40 μM/disk) was employed as the control.
(§2) The selected peptide sequences are known for their antimicrobial activity ([Le et al., 2017]). Therefore, we evaluated the antimicrobial activity of synthesized peptide-PNA conjugates using the Disc Diffusion Assay (DDA) against a panel of MDR Gram-negative bacteria consisting of P. aeruginosa, A. baumannii, K. pneumoniae, E. coli, including the isolates highly polymyxin-resistant A. baumannii 5075R, and A. baumannii 5075D (Figure 4 and Supplementary Table S1). […] During the synthesis of the next set of peptide-PNA conjugates, we switched the direction of the conjugation handles to investigate the impact on the efficiency of conjugation.
Figure S7: The inhibition zone (mm) of all peptides, PNA and peptide-PNA conjugates
against P. aeruginosa ATCC 27853 at a concentration of 40 μM. […]

[2] = system: A. baumannii ATCC 17978; conditions: disc diffusion (EUCAST), 40 μM per disk, inoculum McFarland 0.5 (~10^8 CFU/ml), 18 h at 37°C; volume per disk corrected by Mw equivalent to 40 ug of LASP-072
Procedure: as §1
as §2, with “conjugation. […]” for “conjugation.”
Figure S8: The inhibition zone (mm) of all peptides, PNA and peptide-PNA conjugates
against A. baumannii ATCC 17978 at a concentration of 40 μM. […]

[3] = system: Klebsiella pneumoniae ATCC 700721; conditions: disc diffusion (EUCAST), 40 μM per disk, inoculum McFarland 0.5 (~10^8 CFU/ml), 18 h at 37°C; volume per disk corrected by Mw equivalent to 40 ug of LASP-072
Procedure: as §1
as §2, with “conjugation. […]” for “conjugation.”
Figure S9: The inhibition zone (mm) of all peptides, PNA and peptide-PNA conjugates
against Klebsiella pneumoniae ATCC 700721 at a concentration of 40 μM.

[4] = system: E. coli DH5α; conditions: disc diffusion (EUCAST), 40 μM per disk, inoculum McFarland 0.5 (~10^8 CFU/ml), 18 h at 37°C; volume per disk corrected by Mw equivalent to 40 ug of LASP-072
Procedure: as §1, §2
Figure S10: The inhibition zone (mm) of all peptides, PNA and peptide-PNA conjugates
against E. coli DH5α at a concentration of 40 μM. […]

[5] = system: A. baumannii 5075; conditions: 40 μM per disk; for Zone of inhibition diameter, Ab 5075: disc diffusion (EUCAST), inoculum McFarland 0.5 (~10^8 CFU/ml), 18 h at 37°C, volume per disk corrected by Mw equivalent to 40 ug of LASP-072
Procedure: as §1
as §2, with “conjugation. […]” for “conjugation.”
Figure S11: The inhibition zone (mm) of all peptides, PNA and peptide-PNA conjugates
against A. baumannii 5075 at a concentration of 40 μM. […]

[6] = system: A. baumannii 5075R; conditions: polymyxin-resistant isolate; disc diffusion (EUCAST), 40 μM per disk, inoculum McFarland 0.5 (~10^8 CFU/ml), 18 h at 37°C; volume per disk corrected by Mw equivalent to 40 ug of LASP-072
Procedure: as §1
as §2, with “conjugation. […]” for “conjugation.”
Figure S12: The inhibition zone (mm) of all peptides, PNA and peptide-PNA conjugates
against A. baumannii 5075R at a concentration of 40 μM.

[7] = system: A. baumannii 5075D; format: cell-based, Acinetobacter baumannii; conditions: polymyxin-dependent resistant isolate; disc diffusion (EUCAST), 40 μM per disk, inoculum McFarland 0.5 (~10^8 CFU/ml), 18 h at 37°C; volume per disk corrected by Mw equivalent to 40 ug of LASP-072
Procedure: as §1
(§3) The selected peptide sequences are known for their antimicrobial activity ([Le et al., 2017]). Therefore, we evaluated the antimicrobial activity of synthesized peptide-PNA conjugates using the Disc Diffusion Assay (DDA) against a panel of MDR Gram-negative bacteria consisting of P. aeruginosa, A. baumannii, K. pneumoniae, E. coli, including the isolates highly polymyxin-resistant A. baumannii 5075R, and A. baumannii 5075D (Figure 4 and Supplementary Table S1). […] Therefore, we further synthesized 10-mer PNAs targeting four bacterial essential genes anti-rpoA LASP-095 ([Abushahba et al., 2016]), anti-murA LASP-096 ([Goh et al., 2009]; [Mondhe et al., 2014]), anti-acpP LASP-097 ([Hansen et al., 2016]), and anti-rpoD LASP-119 ([Bai et al., 2012]; [Alajlouni and Seleem, 2013]). During the synthesis of the next set of peptide-PNA conjugates, we switched the direction of the conjugation handles to investigate the impact on the efficiency of conjugation. Here, PNAs were synthesized with an N-terminal CINA moiety (LASP-095, 096, 097 and 119, Table 1) and a polymyxin analogue (LASP-072, Table 1) was synthesized containing an N-terminal cysteine residue (Supplementary Figure S3).
Table S1: Inhibition zone (mm) for peptide, PNA, and peptide-PNA conjugates
Zone of inhibition diameter (mm)
Mw equivalent Pa Ab Kp Ab Ab

[8] = system: panel of MDR Gram-negative bacteria consisting of P. aeruginosa, A. baumannii, K. pneumoniae, E. coli; test: Disc diffusion assay, statements for the whole panel; format: cell-based; conditions: 40 μM per disk, 18 h at 37°C, statement of the text for the whole panel
Procedure: as §1, §3

Compound | Zone of inhibition diameter, Pa ATCC 27853 [1] | Zone of inhibition diameter, Ab ATCC 17978 [2] | Zone of inhibition diameter, Kp ATCC 700721 [3] | Zone of inhibition diameter, E. coli DH5α [4] | Zone of inhibition diameter, Ab 5075 [5] | Zone of inhibition diameter, Ab 5075 R [6] | Zone of inhibition diameter, Ab 5075 D [7] | Bacterial growth in the presence of the conjugate (polymyxin-dependent phenotype) ([5]; disc diffusion, result in words) | Diameter of inhibition zones over the panel of bacteria [8]
N#Cc1cc(C(=O)NCCCC[C@H](NC(=O)COCCOCCNC(=O)[C@H](CCCNC(=N)N)NC(=O)CCCCCNC(=O)[C@H](CCCNC(=N)N)NC(=O)[C@H](CCCNC(=N)N)NC(=O)CCCCCNC(=O)[C@H](CCCNC(=N)N)NC(=O)[C@H](CCCNC(=N)N)NC(=O)CCCCCNC(=O)[C@H](CCCNC(=N)N)NC(=O)[C@H](CCCNC(=N)N)NC(=O)CCCCCNC(=O)[C@@H](N)CCCNC(=N)N)C(N)=O)ccn1 [LASP-054] (H-R[Ahx]RR[Ahx]RR[Ahx]RR[Ahx]R[AEEA]K(X1)-NH2) | 0 mm | 9 mm | 8 mm | 9 mm | 8 mm | 8 mm | 9 mm | – | –
CINA-PEG-Gly-Lys-Pro-Arg-Pro-Tyr-Ser-Pro-Arg-Pro-Thr-Ser-His-Pro-Arg-Pro-Ile-Arg-Arg-NH2 [LASP-077, CINA antimicrobial peptide drosocin containing 19 amino acids] | 0 mm | 0 mm | 0 mm | 0 mm | 0 mm | 0 mm | 0 mm | – | –
CINA-PEG-Gly-Lys-Pro-Arg-Pro-Tyr-Ser-Pro-Arg-Pro-Thr-Ser-His-Pro-Arg-Pro-Ile-Arg-Arg-NH2 [LASP-084, Conjugate of drosocin peptide LASP-077 and PNA LASP-050] | 0 mm | 0 mm | 0 mm | 8 mm | – | 0 mm | 7 mm and 8 mm | greater bacterial growth | –
CINA-PEG-OctGly-Dab-Thr-Dab-Dab ^b -Dab-D-Phe-Leu-Dab-Dab-Thr ^b (lariat or depsi) [LASP-026, Polymyxin analogue with a CINA moiety] | 14 mm | 13 mm | 13 mm | 15 mm | 13 mm | 11 mm | 9 mm | – | –
CINA-PEG-Val-Cys ^c -Lys-Arg-trp-Lys-Lys-Trp-Lys-Arg-Lys-Trp-Lys-Lys-Trp-Cys ^c -Val-NH2 (sidechain bridge or staple) [LASP-086, Thioether cross-linked cathelicidin-PNA conjugate of LASP-078 and LASP-050] | 0 mm | 0 mm | 0 mm | 0 mm | 0 mm | 0 mm | 0 mm | – | No zone of bacterial growth inhibition
CINA-PEG-Val-Cys ^d -Lys-Arg-trp-Lys-Lys-Trp-Lys-Arg-Lys-Trp-Lys-Lys-Trp-Cys ^d -Val-NH2 (disulfide) [LASP-088] | 0 mm | 0 mm | 0 mm | 8 mm | 7 mm and 8 mm | 0 mm | – | – | –
Cys-PEG-OctGly-Dab-Thr-Dab-Dab ^b -Dab-D-Phe-Leu-Dab-Dab-Thr ^b (lariat or depsi) [LASP-130, Conjugate of polymyxin analogue LASP-072 and anti-rpoA PNA LASP-095] | 9 mm | 9 mm | 9 mm | 12 mm | 10 mm | 7 mm | 0 mm | – | 11–14 mm
H-Arg-Acp-Arg-Arg-Acp-Arg-Arg-Acp-Arg-Arg-Acp-Arg-PEG-Lys (CINA)-NH2 [LASP-058, Conjugate of RXR peptide LASP-054 and PNA LASP-050 by Cys-CINA linkage] | 0 mm | 0 mm | 0 mm | 0 mm | 0 mm | 0 mm | 0 mm | – | No zone of bacterial growth inhibition
